The source of these data is patent publication US5196427A, “3-aryl-4(3H) quinazolinone CCK antagonists and pharmaceutical formulations thereof” (Eli Lilly and Company, priority 1991, dated 1993).

The first experiment has as its target T1, Brain CCK receptor (Mus musculus, UniProt P56481).
T1 construct: from tissue; host or cells: forebrain membranes of male CF-1 mice
T1 sequence (P56481 1-453): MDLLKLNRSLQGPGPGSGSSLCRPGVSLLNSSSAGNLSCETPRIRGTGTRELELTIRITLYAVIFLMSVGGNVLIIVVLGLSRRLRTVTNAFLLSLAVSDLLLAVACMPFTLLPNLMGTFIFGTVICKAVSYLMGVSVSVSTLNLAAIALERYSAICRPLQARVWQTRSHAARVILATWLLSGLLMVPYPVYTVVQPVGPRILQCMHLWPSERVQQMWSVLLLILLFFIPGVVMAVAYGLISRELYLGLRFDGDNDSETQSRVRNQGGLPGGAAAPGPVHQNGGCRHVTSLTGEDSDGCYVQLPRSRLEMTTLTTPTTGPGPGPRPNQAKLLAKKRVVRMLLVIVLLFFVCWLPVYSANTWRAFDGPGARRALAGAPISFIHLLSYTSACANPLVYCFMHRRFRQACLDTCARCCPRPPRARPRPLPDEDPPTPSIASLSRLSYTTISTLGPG
The experiment is described as follows: Brain CCK receptor binding (mouse brain membranes, 125I-CCK-8 sulfate).
Details: not given
On the procedure:
Brain CCK receptor binding was performed using mouse brain membranes according to the method of Chang and Lotti (Proc. Natl. Acad. Sci. 83: 4923-4926, 1986). Male CF-1 mice, 23-25 g were sacrificed by cervical dislocation, the forebrain removed and placed in ice cold 50 mM Tris buffer, pH 7.4. The tissue was homogenized in 100 volumes of the Tris buffer with a Brinkman Polytron or Tekmar Tissumizer and then centrifuged at 40,000 g for 10 min. Pellets were resuspended in Tris buffer, centrifuged as above and then resuspended in 100 volumes of assay buffer, pH 6.5 (20 mM N-2-hydroxyethyl-piperazine-N'-2-ethane sulfonic acid (HEPES), 1 mM ethylene glycol bis(2-aminoethyl ether-N,N,N',N'-tetraaceticacid) (EGTA), 5 mM MgCl2, 130 mM NaCl, and 0.25 mg/ml bacitracin). The binding assay consisted of 50 μL of compound (or buffer for total binding), 50 μL of ^125 I-CCK-8 sulfate (20 pM) (Amersham IM-159), 200 μL of assay buffer and 200 μL of homogenate (80-120 μg protein). The samples were incubated at room temperature (25°) for 2 hours, and they were then filtered through GF/B glass fiber filters (soaked in wash buffer for 2 hours before use) using a 48 well Brandel cell harvester designed for receptor binding. The filters were washed twice with 3 ml of 50 mM Tris buffer, pH 7.4, containing 0.01% BSA and then counted for radioactivity in plastic tubes with a Micromedic 10/600 automatic gamma counter.
Compounds were dissolved in dimethyl sulfoxide (DMSO) at a concentration of 10 mM and then further diluted with assay buffer. […] IC-50 values of displacement curves were determined using 7 concentrations of compound and were calculated using the ALLFIT computer program of DeLean, Munson and Rodbard (Am. J. Physiol. 235: E97-E102, 1978). Non-specific binding was determined as the displacement of the radioligand by 100 nM CCK-8 sulfate.
The term IC50 denotes the concentration that inhibits the measured activity by half. On to `COc1ccc(-n2c(CCc3c[nH]c4ccccc34)nc3ccccc3c2=O)cc1` [Example 51], for which the IC50 came to 98 ± 7 nM.

The experiment is the same for the next values; noted with them: mouse brain membranes; 1 μM.
As a reminder, the inhibition is the relative decrease from the control value, in per cent. Molecule `COc1cccc(-n2c(CC(c3ccccc3)c3c[nH]c4ccccc34)nc3ccccc3c2=O)c1` (centres unmarked) [Example 5, 2-[2-Phenyl-2-(3-indolyl)ethyl]-3-(3-methoxyphenyl)-4-(3H)quinazolinone] yielded an inhibition at 1 µM of 57%.

As for `CCCc1cc(-n2c(CCc3c[nH]c4ccc(Br)cc34)nc3ccccc3c2=O)ccc1OC` [Example 43], 1 µM produced 85% inhibition.

Molecule `CC(C)Oc1cccc(-n2c(CCc3c[nH]c4ccc(Br)cc34)nc3ccc(Cl)cc3c2=O)c1` [Example 66] showed an inhibition at 1 µM of 90%.

The same experiment, now with this note: mouse brain membranes; 10 μM; read-out: Brain % inhibition in binding assay.
For the molecule `COc1cccc(-n2c(CC(Cc3ccccc3)c3c[nH]c4ccccc34)nc3ccccc3c2=O)c1` (centres unmarked) [Example 65], the inhibition at 10 µM came out at 70%.

With `O=c1c2ccccc2nc(CCc2c[nH]c3ccccc23)n1-c1ccccc1C(F)(F)F` [Example 11], the inhibition at 10 µM amounted to 35%.

The experiment is the same for the next values; noted with them: mouse brain membranes; Mean ± SEM, n = 3; values without SEM n = 1; read-out: Brain IC50.
Take `CCOc1cccc(-n2c(CCc3c[nH]c4ccc(OC)cc34)nc3ccccc3c2=O)c1` [Example 24]: the IC50 was 33 nM.

For `CCCOc1ccc(-n2c(CCc3c[nH]c4ccc(Br)cc34)nc3ccccc3c2=O)cc1` [Example 54], the IC50 was found to be 1200 nM.

In the case of `O=c1c2ccccc2nc(CCc2c[nH]c3ccc(Br)cc23)n1-c1cccc(N2CCCC2)c1` [Example 40], the IC50 came to 22 ± 3 nM.

Regarding `CN(C)c1cccc(-n2c(CCc3c[nH]c4ccc(Br)cc34)nc3ccccc3c2=O)c1` [Example 38], the IC50 worked out at 16 ± 1 nM.

Regarding `CCN(CC)c1ccc(-n2c(CCc3c[nH]c4ccc(Br)cc34)nc3ccccc3c2=O)cc1` [Example 59], the IC50 amounted to 47 nM.

As to `O=c1c2ccccc2nc(CCc2c[nH]c3ccc(Cl)cc23)n1-c1cccc(C(F)(F)F)c1` [Example 35], the IC50 is 230 nM.

`COc1ccc2[nH]cc(CCc3nc4ccccc4c(=O)n3-c3cccc(OC(C)C)c3)c2c1` [Example 27]: the IC50 was found to be 19 nM.

Turning to `COc1ccc2[nH]cc(CCc3nc4ccccc4c(=O)n3-c3cccc(C(F)(F)F)c3)c2c1` [Example 37], the IC50 worked out at 130 nM.

Take `COc1cccc(-n2c(CC(C)c3c[nH]c4ccc(Br)cc34)nc3ccccc3c2=O)c1` (centres unmarked) [Example 63]: the IC50 stood at 100 nM.

For the molecule `CSc1ccc(-n2c(CCc3c[nH]c4ccc(Br)cc34)nc3ccccc3c2=O)cc1` [Example 60], the IC50 stood at 37 ± 10 nM.

Consider `Cc1ccc2[nH]cc(CCc3nc4ccccc4c(=O)n3-c3cccc(C(F)(F)F)c3)c2c1` [Example 36], for which the IC50 turned out to be 190 nM.

As to `COc1cccc(-n2c(CCc3c[nH]c4ccc(C)cc34)nc3ccccc3c2=O)c1` [Example 21], the IC50 stood at 55 ± 3 nM.

As for `CCOc1ccc(-n2c(CCc3c[nH]c4ccc(Br)cc34)nc3ccccc3c2=O)cc1` [Example 53], the IC50 came out at 88 ± 10 nM.

`O=c1c2ccccc2nc(CCc2c[nH]c3cc(Cl)ccc23)n1-c1ccccc1` [Example 7]: the IC50 was found to be 1100 nM.

For `CN(C)c1ccc(-n2c(CCc3c[nH]c4ccc(Br)cc34)nc3ccccc3c2=O)cc1` [Example 57], the concentration for half-maximal inhibition (IC50) amounted to 33 ± 6 nM.

`O=c1c2ccccc2nc(CCc2c[nH]c3ccccc23)n1-c1ccc2c(c1)OCO2` [Example 42]: the IC50 came out at 190 ± 40 nM.

For `CC(C)Oc1ccc(-n2c(CCc3c[nH]c4ccc(Br)cc34)nc3ccccc3c2=O)cc1` [Example 55], the IC50 was determined as 110 ± 20 nM.

As to `CSc1cccc(-n2c(CCc3c[nH]c4ccc(Br)cc34)nc3ccccc3c2=O)c1` [Example 32], the IC50 was determined as 46 ± 8 nM.

On to `CCCCc1ccc(-n2c(CCc3c[nH]c4ccc(Br)cc34)nc3ccccc3c2=O)cc1` [Example 50], for which the IC50 stood at 930 nM.

With `COc1cccc(-n2c(CCc3c[nH]c4ccc(Cl)cc34)nc3ccccc3c2=O)c1` [Example 19], the IC50 came to 47 ± 3 nM.

Take `O=c1c2ccccc2nc(CCc2c[nH]c3ccc(Br)cc23)n1-c1cccc(C(F)(F)F)c1` [Example 34]: the IC50 is 230 ± 30 nM.

Take `COc1ccc(-n2c(CCc3c[nH]c4ccc(Br)cc34)nc3ccccc3c2=O)cc1OC` [Example 46]: the IC50 was 130 ± 30 nM.

For the molecule `COc1cc(OC)cc(-n2c(CCc3c[nH]c4ccccc34)nc3ccccc3c2=O)c1` [Example 41], the IC50 is 1800 nM.

Turning to `CC(C)c1ccc(-n2c(CCc3c[nH]c4ccc(Br)cc34)nc3ccccc3c2=O)cc1` [Example 48], the IC50 was 37 ± 13 nM.

For the molecule `COc1ccc2[nH]cc(CCc3nc4ccccc4c(=O)n3-c3cccc(SC)c3)c2c1` [Example 33], the IC50 was 34 nM.

Regarding `CC(C)Oc1cccc(-n2c(CCc3c[nH]c4ccc(Cl)cc34)nc3ccccc3c2=O)c1` [Example 26], the IC50 was 19 ± 5 nM.

As for `CCOc1ccc(-n2c(CCc3c[nH]c4ccc(Br)cc34)nc3ccccc3c2=O)cc1C` [Example 44], the IC50 worked out at 65 nM.

`COc1cccc(-n2c(CCc3c[nH]c4ccc(OC)cc34)nc3ccccc3c2=O)c1` [Example 22]: the IC50 came to 67 ± 5 nM.

Turning to `CCc1ccc(-n2c(CCc3c[nH]c4ccc(Br)cc34)nc3ccccc3c2=O)cc1` [Example 47], the IC50 was found to be 28 ± 4 nM.

Consider `COc1ccc2[nH]cc(CCc3nc4ccccc4c(=O)n3-c3ccccc3)c2c1` [Example 3, 2-[2-(5-methoxyindol-3-yl)-ethyl]-3-phenyl-4-(3H)quinazolinone], for which the IC50 is 410 nM.

For the molecule `COc1cccc(-n2c(CCc3c[nH]c4ccc(F)cc34)nc3ccccc3c2=O)c1` [Example 18], the IC50 amounted to 110 ± 10 nM.

Turning to `CC(C)c1ccc(-n2c(CCc3c[nH]c4ccc(Cl)cc34)nc3ccccc3c2=O)cc1` [Example 49], the IC50 came out at 38 nM.

In the case of `CCCCOc1ccc(-n2c(CCc3c[nH]c4ccc(Br)cc34)nc3ccccc3c2=O)cc1` [Example 56], the IC50 is 1100 nM.

With `COc1ccc(-n2c(CCc3c[nH]c4ccc(Br)cc34)nc3ccccc3c2=O)cc1C` [Example 45], the half-inhibitory concentration (IC50) came to 29 nM.

Take `CN(C)c1ccc(-n2c(CCc3c[nH]c4ccc(Cl)cc34)nc3ccccc3c2=O)cc1` [Example 58]: the IC50 was determined as 87 nM.

On to `CC(C)Oc1cccc(-n2c(CCc3c[nH]c4ccccc34)nc3ccccc3c2=O)c1` [Example 25], for which the IC50 is 26 ± 0.3 nM.

`CN(C)c1cccc(-n2c(CCc3c[nH]c4ccc(Cl)cc34)nc3ccccc3c2=O)c1` [Example 39]: the IC50 worked out at 13 nM.

The same experiment, now with this note: read-out: Brain % inhibition in binding assay, mouse brain membranes; 10 μM.
On to `COc1ccccc1-n1c(CCc2c[nH]c3ccccc23)nc2ccccc2c1=O` [Example 10], for which the inhibition at 10 µM worked out at 74%.

Turning to `O=c1c2ccccc2nc(Cc2c[nH]c3ccccc23)n1-c1ccccc1` [Example 2, 2-(3-Indolylmethyl)-3-phenyl-4-(3H)quinazolinone], the inhibition at 10 µM turned out to be 36%.

In the case of `O=c1c2ccccc2nc(CCc2c[nH]c3ccccc23)n1-c1ccccc1F` [Example 8], the inhibition at 10 µM was 75%.

In the case of `O=c1c2ccccc2nc(CCc2c[nH]c3ccccc23)n1-c1ccccc1Cl` [Example 9], the inhibition at 10 µM was 44%.
